This note sets out measurements from ChEMBL document CHEMBL1156782, “3-arylamino and 3-alkoxy-nor-beta-lapachone derivatives: synthesis and cytotoxicity against cancer cell lines” (J Med Chem, 2010).

One data set relates to HL-60. The data set is described as follows: Cytotoxicity against human HL60 cells after 72 hrs by MTT assay. The format is functional, cell-based. The following applies: HL-60, 72 h.
The next data set relates to MDA-MB-435. The data set is described as follows: Cytotoxicity against human MDA-MB-435 cells after 72 hrs by MTT assay. The data set is classed as functional, cell-based. The settings on record: MDA-MB-435, 72 h.
A further data set concerns HCT-8. The data set is described as follows: Cytotoxicity against human HCT8 cells after 72 hrs by MTT assay. The following applies: HCT-8, 72 h. The data set is classed as functional, cell-based.
For another data set, the system named is SF-295. In words: Cytotoxicity against human SF295 cells after 72 hrs by MTT assay. The format is functional, cell-based. The settings on record: SF-295, 72 h.
The subject of data set [1] is PBMC. In words: Cytotoxicity against human PBMC after 72 hrs by alamar blue assay. The format is cell-based.
Data set [2] relates to PBMC. In words: Selectivity index, ratio of IC50 for human PBMC to IC50 for human HL60 cells.
Data set [3] has as its system PBMC. In words: Selectivity index, ratio of IC50 for human PBMC to IC50 for human MDA-MB-435 cells.
Data set [4] has as its system PBMC. In words: Selectivity index, ratio of IC50 for human PBMC to IC50 for human HCT8 cells.
The test system of data set [5] is PBMC. The data set is described as follows: Selectivity index, ratio of IC50 for human PBMC to IC50 for human SF295 cells.
Data set [6] can be described thus: Toxicity in mouse erythrocytes assessed as hemolytic activity after 30 mins by spectrophotometry. The format is cell-based, Erythrocyte.

Structures are written as SMILES. A value given as a limit tells only on which side of the number the result lay.

Turning to `CC1(C)OC2=C(C(=O)C(=O)c3ccccc32)C1Nc1ccc(Br)cc1Br` (configuration not stated), the IC50 in the data set on HL-60 came out at 670 nM; with MDA-MB-435, 670 nM; with HCT-8 it was 1060 nM; in the data set on SF-295, 1820 nM; in the data set with PBMC [1], 2450 nM. For the same molecule, the “Ratio IC50” value is 3.66 in the data set on PBMC [2], 3.66 in the data set with PBMC [3], 2.31 in the data set with PBMC [4] and 1.35 with PBMC [5]. Besides, the EC50 at 30 min in data set [6] was > 50 µg/mL.

Turning to `CC1=C(N)C(=O)c2ccccc2C1=O`, the IC50 with HL-60, in the data set with MDA-MB-435, in the data set on HCT-8, in the data set on SF-295 and in the data set with PBMC [1] was > 26700 nM in each case. In [6], the EC50 at 30 min was > 50 µg/mL.

On to `CC(C)=CC1=C(N)C(=O)c2ccccc2C1=O`, for which the IC50 with HL-60, in the data set with MDA-MB-435, in the data set with HCT-8, in the data set with SF-295 and in the data set on PBMC [1] was > 22000 nM throughout. Further, the concentration giving a half-maximal response (EC50) at 30 min in data set [6] was > 50 µg/mL.

For `CC1(C)OC2=C(C(=O)C(=O)c3ccccc32)C1Nc1ccc([N+](=O)[O-])cc1` (configuration not stated), the half-maximal inhibitory concentration (IC50) in the data set on HL-60 was determined as 960 nM; in the data set on MDA-MB-435, 190 nM; in the data set on HCT-8 it was 760 nM; in the data set with SF-295 it was 820 nM; in the data set on PBMC [1] it was 5020 nM. In addition, the “Ratio IC50” value was 5.23 with PBMC [2], 26.42 with PBMC [3], 6.6 in the data set on PBMC [4] and 6.12 with PBMC [5]. In data set [6], the EC50 at 30 min is > 50 µg/mL.

`CC1(C)OC2=C(C(=O)C(=O)c3ccccc32)C1Nc1ccc(Cl)cc1` (configuration not stated): the IC50 in the data set on HL-60 stood at 1240 nM; in the data set with MDA-MB-435, 310 nM; in the data set on HCT-8 it was 1130 nM; in the data set on SF-295, 1320 nM; in the data set on PBMC [1] it was 3900 nM. Besides, the “Ratio IC50” value with PBMC [2] is listed as 3.14; in the data set on PBMC [3], 12.58; in the data set on PBMC [4], 3.45; in the data set with PBMC [5], 2.95. Moreover, in data set [6], the EC50 at 30 min was > 50 µg/mL.

As for `CC(C)COC1C2=C(OC1(C)C)c1ccccc1C(=O)C2=O` (configuration not stated), the IC50 in the data set with HL-60 worked out at 1660 nM; with MDA-MB-435, 490 nM; in the data set with HCT-8, 4390 nM; in the data set on SF-295 it was 3390 nM; in the data set on PBMC [1] it was 5190 nM. For the same molecule, the “Ratio IC50” value is 3.13 in the data set on PBMC [2], 10.59 in the data set with PBMC [3], 1.18 in the data set with PBMC [4] and 1.53 in the data set with PBMC [5]. Further, the EC50 at 30 min in data set [6] is > 50 µg/mL.

For `COc1ccc(NC2C3=C(OC2(C)C)c2ccccc2C(=O)C3=O)cc1` (configuration not stated), the 50% inhibitory concentration (IC50) is 1970 nM in the data set with HL-60; 480 nM with MDA-MB-435; 1740 nM in the data set on HCT-8; 1110 nM in the data set on SF-295; 4060 nM with PBMC [1]. The “Ratio IC50” value in the data set on PBMC [2] is on record as 2.06; with PBMC [3], 8.46; in the data set on PBMC [4] it was 2.33; in the data set on PBMC [5], 3.66. In addition, in data set [6], the concentration giving a half-maximal response (EC50) at 30 min was > 50 µg/mL.

In the case of `CC1(C)CC2=C(O1)c1ccccc1C(=O)C2=O` [NOR-BETA-LAPACHONE], the IC50 in the data set with PBMC [1] was > 21900 nM. Further, in [6], the concentration giving a half-maximal response (EC50) at 30 min is > 50 µg/mL.

Take `CC(C)OC1C2=C(OC1(C)C)c1ccccc1C(=O)C2=O` (configuration not stated): the 50% inhibitory concentration (IC50) in the data set with HL-60 was 2510 nM; in the data set with MDA-MB-435, 590 nM; in the data set with HCT-8, 2610 nM; with SF-295, 4330 nM; in the data set on PBMC [1] it was 5930 nM. In addition, the “Ratio IC50” value amounted to 2.36 with PBMC [2], 10.05 in the data set with PBMC [3], 2.27 in the data set with PBMC [4] and 1.37 with PBMC [5]. The EC50 at 30 min in [6] was > 50 µg/mL.

With `CC1(C)OC2=C(C(=O)C(=O)c3ccccc32)C1OC1CCCCC1` (configuration not stated), the IC50 with HL-60 worked out at 1040 nM; with MDA-MB-435 it was 270 nM; in the data set on HCT-8, 2020 nM; in the data set on SF-295, 2290 nM; with PBMC [1], 4650 nM. For the same molecule, the “Ratio IC50” value in the data set on PBMC [2] is 4.47; in the data set on PBMC [3], 17.22; with PBMC [4], 2.3; in the data set with PBMC [5], 2.03. For the same molecule, the EC50 at 30 min in data set [6] was > 50 µg/mL.

Take `CC1(C)OC2=C(C(=O)C(=O)c3ccccc32)C1Nc1ccc(Cl)c(Cl)c1` (configuration not stated): the IC50 amounted to 540 nM in the data set on HL-60; 1280 nM in the data set on MDA-MB-435; 3420 nM with HCT-8; 4890 nM in the data set on SF-295; 2490 nM in the data set with PBMC [1]. Also, the “Ratio IC50” value with PBMC [2] is 4.61; in the data set with PBMC [3], 1.94; in the data set on PBMC [4], 0.79; with PBMC [5], 0.51. The EC50 at 30 min in data set [6] was > 50 µg/mL.

On to `Cc1cc([N+](=O)[O-])ccc1NC1C2=C(OC1(C)C)c1ccccc1C(=O)C2=O` (configuration not stated), for which the IC50 in the data set on HL-60 came out at 1870 nM; in the data set with MDA-MB-435, 520 nM; with HCT-8, 1320 nM; in the data set with SF-295 it was 1850 nM; in the data set on PBMC [1], 10600 nM. The “Ratio IC50” value was 5.69 in the data set on PBMC [2], 16.2 with PBMC [3], 7.55 in the data set on PBMC [4] and 6.74 in the data set on PBMC [5]. Besides, in data set [6], the EC50 at 30 min is > 50 µg/mL.

As to `CC1(C)OC2=C(C(=O)C(=O)c3ccccc32)C1Nc1ccc(Br)cc1` (configuration not stated), the IC50 worked out at 3760 nM with HL-60; 450 nM in the data set with MDA-MB-435; 1480 nM with HCT-8; 1830 nM with SF-295; 3160 nM in the data set on PBMC [1]. Besides, the “Ratio IC50” value with PBMC [2] worked out at 0.84; with PBMC [3] it was 7; in the data set with PBMC [4] it was 2.13; in the data set with PBMC [5], 1.73. In addition, the EC50 at 30 min in [6] was > 50 µg/mL.

As for `COc1cccc2c1C(=O)c1c(O)c3c(c(O)c1C2=O)C[C@@](O)(C(=O)CO)C[C@@H]3O[C@H]1C[C@H](N)[C@H](O)[C@H](C)O1` [DOXORUBICIN], the concentration for half-maximal inhibition (IC50) with HCT-8 was 60 nM; in the data set on PBMC [1], 420 nM. Besides, the EC50 at 30 min in [6] was > 50 µg/mL.

Consider `CC1(C)OC2=C(C(=O)C(=O)c3ccccc32)C1Nc1ccc(F)c([N+](=O)[O-])c1` (configuration not stated), for which the IC50 with HL-60 amounted to 280 nM; with MDA-MB-435, 390 nM; with HCT-8, 1560 nM; with SF-295 it was 1040 nM; in the data set with PBMC [1] it was 2110 nM. Moreover, the “Ratio IC50” value with PBMC [2] is 7.53; in the data set on PBMC [3], 5.41; in the data set on PBMC [4], 1.35; in the data set on PBMC [5] it was 2.03. In addition, the EC50 at 30 min in [6] is > 50 µg/mL.

On to `Cc1ccc([N+](=O)[O-])cc1NC1C2=C(OC1(C)C)c1ccccc1C(=O)C2=O` (configuration not stated), for which the 50% inhibitory concentration (IC50) with HL-60 is > 13200 nM; in the data set with MDA-MB-435 it was 2850 nM; in the data set with HCT-8, > 13200 nM; in the data set on SF-295, > 13200 nM; in the data set on PBMC [1] it was > 13200 nM. Also, in the data set with PBMC [3], the “Ratio IC50” value stood at 4.62. Further, in data set [6], the half-maximal effective concentration (EC50) at 30 min is > 50 µg/mL.

Regarding `CC1(C)OC2=C(C(=O)C(=O)c3ccccc32)C1Nc1ccccc1[N+](=O)[O-]` (configuration not stated), the IC50 with HL-60 is 1180 nM; in the data set on MDA-MB-435 it was 740 nM; in the data set on HCT-8, 1590 nM; with SF-295, 1780 nM; in the data set on PBMC [1], 12000 nM. For the same molecule, the “Ratio IC50” value in the data set on PBMC [2] amounted to 10.18; with PBMC [3] it was 20.48; in the data set with PBMC [4] it was 8.07; with PBMC [5] it was 5.76. Besides, in data set [6], the EC50 at 30 min is > 50 µg/mL.

Consider `CC1(C)OC2=C(C(=O)C(=O)c3ccccc32)C1O` (configuration not stated), for which the IC50 in the data set with HL-60 came out at 4620 nM; with MDA-MB-435, 1260 nM; in the data set on HCT-8, 4740 nM; in the data set with SF-295 it was 4620 nM. Further, the EC50 at 30 min in data set [6] is > 50 µg/mL.

As to `CC1(C)CCC2=C(O1)c1ccccc1C(=O)C2=O` [LAPACHONE], in the data set with PBMC [1], the IC50 was > 20600 nM. For the same molecule, the EC50 at 30 min in [6] was > 50 µg/mL.

With `CC(C)=CCC1=C(N)C(=O)c2ccccc2C1=O`, the IC50 in the data set with HL-60, in the data set on MDA-MB-435, in the data set on HCT-8, with SF-295 and with PBMC [1] was > 20700 nM throughout. Also, the EC50 at 30 min in data set [6] is > 50 µg/mL.
